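Five compound concentrations were applied to cells in 96-well plates for 48 hours; endpoints were derived by simple linear interpolation of the resulting dose-response curve. TGI: total growth inhibition.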
Key:
Test in all cases: DTP human tumour cell line panel, 48 h
MDA-MB-435 = tested on: MDA-MB-435
PC-3 prostate = tested on: PC-3 prostate
U251 CNS = tested on: U251 CNS
NCI-H460 lung = tested on: NCI-H460 lung
SNB-19 CNS = tested on: SNB-19 CNS
SF-268 CNS = tested on: SF-268 CNS
HOP-92 NSCLC = tested on: HOP-92 NSCLC
TK-10 renal = tested on: TK-10 renal
IGROV1 ovarian = tested on: IGROV1 ovarian
T-47D breast = tested on: T-47D breast
M14 melanoma = tested on: M14 melanoma
HCT-116 colon = tested on: HCT-116 colon
SF-295 CNS = tested on: SF-295 CNS
UACC-257 melanoma = tested on: UACC-257 melanoma
HCT-15 colon = tested on: HCT-15 colon
OVCAR-4 ovarian = tested on: OVCAR-4 ovarian
SK-OV-3 ovarian = tested on: SK-OV-3 ovarian
MDA-N = tested on: MDA-N
SK-MEL-28 melanoma = tested on: SK-MEL-28 melanoma
NCI-H522 lung = tested on: NCI-H522 lung
HCC-2998 colon = tested on: HCC-2998 colon
LOX IMVI melanoma = tested on: LOX IMVI melanoma
OVCAR-3 ovarian = tested on: OVCAR-3 ovarian
ACHN renal = tested on: ACHN renal
HS 578T breast = tested on: HS 578T breast
SNB-75 CNS = tested on: SNB-75 CNS
NCI/ADR-RES ovarian = tested on: NCI/ADR-RES ovarian
OVCAR-5 ovarian = tested on: OVCAR-5 ovarian
EKVX NSCLC = tested on: EKVX NSCLC
MOLT-4 leukemia = tested on: MOLT-4 leukemia
HL-60(TB) leukemia = tested on: HL-60(TB) leukemia
SF-539 CNS = tested on: SF-539 CNS
DU-145 prostate = tested on: DU-145 prostate
SW-620 colon = tested on: SW-620 colon
786-0 renal = tested on: 786-0 renal
SK-MEL-5 melanoma = tested on: SK-MEL-5 melanoma
MCF7 breast = tested on: MCF7 breast
A549 NSCLC = tested on: A549 NSCLC
MALME-3M melanoma = tested on: MALME-3M melanoma
RPMI-8226 leukemia = tested on: RPMI-8226 leukemia
SK-MEL-2 melanoma = tested on: SK-MEL-2 melanoma
HT29 colon = tested on: HT29 colon
K-562 leukemia = tested on: K-562 leukemia
KM12 colon = tested on: KM12 colon
SN12C renal = tested on: SN12C renal
OVCAR-8 ovarian = tested on: OVCAR-8 ovarian
NCI-H226 lung = tested on: NCI-H226 lung
CCRF-CEM leukemia = tested on: CCRF-CEM leukemia
UO-31 renal = tested on: UO-31 renal
COLO 205 colon = tested on: COLO 205 colon
UACC-62 melanoma = tested on: UACC-62 melanoma
A498 renal = tested on: A498 renal
NCI-H23 lung = tested on: NCI-H23 lung
RXF 393 renal = tested on: RXF 393 renal
MDA-MB-231 breast = tested on: MDA-MB-231 breast
SR leukemia = tested on: SR leukemia
HOP-62 NSCLC = tested on: HOP-62 NSCLC
CAKI-1 renal = tested on: CAKI-1 renal

Structure (SMILES): CC[C@H]1C[C@@H](O)[C@@H]2[C@H](O)[C@H](O)CN2C1
- TGI (MDA-MB-435): > 100 µM
- TGI (PC-3 prostate): > 100 µM
- TGI (U251 CNS): > 100 µM
- TGI (NCI-H460 lung): > 100 µM
- TGI (SNB-19 CNS): > 100 µM
- TGI (SF-268 CNS): > 100 µM
- TGI (HOP-92 NSCLC): > 100 µM
- TGI (TK-10 renal): > 100 µM
- TGI (IGROV1 ovarian): > 100 µM
- TGI (T-47D breast): > 100 µM
- TGI (M14 melanoma): > 100 µM
- TGI (HCT-116 colon): > 100 µM
- TGI (SF-295 CNS): > 100 µM
- TGI (UACC-257 melanoma): > 100 µM
- TGI (HCT-15 colon): > 100 µM
- TGI (OVCAR-4 ovarian): > 100 µM
- TGI (SK-OV-3 ovarian): > 100 µM
- TGI (MDA-N): > 100 µM
- TGI (SK-MEL-28 melanoma): > 100 µM
- TGI (NCI-H522 lung): > 100 µM
- TGI (HCC-2998 colon): > 100 µM
- TGI (LOX IMVI melanoma): > 100 µM
- TGI (OVCAR-3 ovarian): > 100 µM
- TGI (ACHN renal): > 100 µM
- TGI (HS 578T breast): > 100 µM
- TGI (SNB-75 CNS): > 100 µM
- TGI (NCI/ADR-RES ovarian): > 100 µM
- TGI (OVCAR-5 ovarian): > 100 µM
- TGI (EKVX NSCLC): > 100 µM
- TGI (MOLT-4 leukemia): > 100 µM
- TGI (HL-60(TB) leukemia): > 100 µM
- TGI (SF-539 CNS): > 100 µM
- TGI (DU-145 prostate): > 100 µM
- TGI (SW-620 colon): > 100 µM
- TGI (786-0 renal): > 100 µM
- TGI (SK-MEL-5 melanoma): > 100 µM
- TGI (MCF7 breast): > 100 µM
- TGI (A549 NSCLC): > 100 µM
- TGI (MALME-3M melanoma): > 100 µM
- TGI (RPMI-8226 leukemia): > 100 µM
- TGI (SK-MEL-2 melanoma): > 100 µM
- TGI (HT29 colon): > 100 µM
- TGI (K-562 leukemia): > 100 µM
- TGI (KM12 colon): > 100 µM
- TGI (SN12C renal): > 100 µM
- TGI (OVCAR-8 ovarian): > 100 µM
- TGI (NCI-H226 lung): > 100 µM
- TGI (CCRF-CEM leukemia): > 100 µM

Structure (SMILES): CCCCCC(/C=N/Nc1ccccc1)C(O)(C(F)(F)F)C(F)(F)F (stereo not drawn)
- TGI (UO-31 renal): > 100 µM
- TGI (MDA-MB-435): > 100 µM
- TGI (PC-3 prostate): > 100 µM
- TGI (U251 CNS): > 100 µM
- TGI (COLO 205 colon): > 100 µM
- TGI (NCI-H460 lung): > 100 µM
- TGI (SNB-19 CNS): > 100 µM
- TGI (SF-268 CNS): > 100 µM
- TGI (HOP-92 NSCLC): > 100 µM
- TGI (IGROV1 ovarian): > 100 µM
- TGI (T-47D breast): > 100 µM
- TGI (M14 melanoma): > 100 µM
- TGI (HCT-116 colon): > 100 µM
- TGI (UACC-62 melanoma): > 100 µM
- TGI (A498 renal): > 100 µM
- TGI (SF-295 CNS): > 100 µM
- TGI (NCI-H23 lung): > 100 µM
- TGI (UACC-257 melanoma): > 100 µM
- TGI (HCT-15 colon): > 100 µM
- TGI (OVCAR-4 ovarian): > 100 µM
- TGI (SK-OV-3 ovarian): > 100 µM
- TGI (MDA-N): > 100 µM
- TGI (RXF 393 renal): > 100 µM
- TGI (SK-MEL-28 melanoma): > 100 µM
- TGI (NCI-H522 lung): > 100 µM
- TGI (MDA-MB-231 breast): > 100 µM
- TGI (HCC-2998 colon): > 100 µM
- TGI (SR leukemia): > 100 µM
- TGI (LOX IMVI melanoma): > 100 µM
- TGI (OVCAR-3 ovarian): > 100 µM
- TGI (ACHN renal): > 100 µM
- TGI (HS 578T breast): > 100 µM
- TGI (SNB-75 CNS): > 100 µM
- TGI (NCI/ADR-RES ovarian): > 100 µM
- TGI (OVCAR-5 ovarian): > 100 µM
- TGI (EKVX NSCLC): > 100 µM
- TGI (MOLT-4 leukemia): > 100 µM
- TGI (HL-60(TB) leukemia): > 100 µM
- TGI (SF-539 CNS): > 100 µM
- TGI (DU-145 prostate): > 100 µM
- TGI (SW-620 colon): > 100 µM
- TGI (786-0 renal): > 100 µM
- TGI (SK-MEL-5 melanoma): > 100 µM
- TGI (HOP-62 NSCLC): > 100 µM
- TGI (A549 NSCLC): > 100 µM
- TGI (MALME-3M melanoma): > 100 µM
- TGI (RPMI-8226 leukemia): > 100 µM
- TGI (SK-MEL-2 melanoma): > 100 µM
- TGI (HT29 colon): > 100 µM
- TGI (K-562 leukemia): > 100 µM
- TGI (SN12C renal): > 100 µM
- TGI (OVCAR-8 ovarian): > 100 µM
- TGI (CAKI-1 renal): > 100 µM
- TGI (NCI-H226 lung): > 100 µM
- TGI (CCRF-CEM leukemia): > 100 µM

Structure (SMILES): COc1ccc(C2=NN(C(=O)c3ccc(Cl)cc3)C(O)(c3cc(F)c(Cl)cc3Cl)C2)cc1OC (stereo not drawn)
- TGI (UO-31 renal): 10.9 µM
- TGI (MDA-MB-435): > 100 µM
- TGI (PC-3 prostate): > 100 µM
- TGI (U251 CNS): > 100 µM
- TGI (NCI-H460 lung): > 100 µM
- TGI (SF-268 CNS): > 100 µM
- TGI (HOP-92 NSCLC): > 100 µM
- TGI (TK-10 renal): > 100 µM
- TGI (IGROV1 ovarian): > 100 µM
- TGI (T-47D breast): > 100 µM
- TGI (M14 melanoma): > 100 µM
- TGI (HCT-116 colon): > 100 µM
- TGI (A498 renal): > 100 µM
- TGI (SF-295 CNS): > 100 µM
- TGI (NCI-H23 lung): > 100 µM
- TGI (UACC-257 melanoma): > 100 µM
- TGI (HCT-15 colon): > 100 µM
- TGI (OVCAR-4 ovarian): > 100 µM
- TGI (SK-OV-3 ovarian): > 100 µM
- TGI (MDA-N): > 100 µM
- TGI (RXF 393 renal): > 100 µM
- TGI (SK-MEL-28 melanoma): > 100 µM
- TGI (NCI-H522 lung): > 100 µM
- TGI (MDA-MB-231 breast): > 100 µM
- TGI (HCC-2998 colon): > 100 µM
- TGI (LOX IMVI melanoma): > 100 µM
- TGI (OVCAR-3 ovarian): > 100 µM
- TGI (ACHN renal): > 100 µM
- TGI (HS 578T breast): > 100 µM
- TGI (NCI/ADR-RES ovarian): > 100 µM
- TGI (OVCAR-5 ovarian): > 100 µM
- TGI (EKVX NSCLC): > 100 µM
- TGI (MOLT-4 leukemia): > 100 µM
- TGI (HL-60(TB) leukemia): 2.2 µM
- TGI (SF-539 CNS): > 100 µM
- TGI (DU-145 prostate): > 100 µM
- TGI (SW-620 colon): > 100 µM
- TGI (786-0 renal): > 100 µM
- TGI (SK-MEL-5 melanoma): > 100 µM
- TGI (HOP-62 NSCLC): > 100 µM
- TGI (MCF7 breast): > 100 µM
- TGI (RPMI-8226 leukemia): > 100 µM
- TGI (SK-MEL-2 melanoma): > 100 µM
- TGI (HT29 colon): > 100 µM
- TGI (K-562 leukemia): > 100 µM
- TGI (KM12 colon): > 100 µM
- TGI (OVCAR-8 ovarian): > 100 µM
- TGI (CAKI-1 renal): 98.4 µM
- TGI (NCI-H226 lung): > 100 µM
- TGI (CCRF-CEM leukemia): > 100 µM

Reference: PubChem BioAssay (NCI)
